Source: patent US20040082503A1, “Methods for treatment of diabetes using peptide analogues of insulin” (Neurocrine Biosciences, Inc., priority 1998, published 2004)
Values joined by “and” are separate entries in the source; they are usually repeats but may differ in a detail not shown here. Identical values can stand only once.

Experiments:
[1] = system: Insulin B chain (9-23) specific mouse (NOD) T cell clones; test: Proliferation of insulin-specific NOD T cell clones (summary over clones); assay type: cell-based; conditions: four NOD derived T cell clones; 50 μM peptide
Experimental: (§1) Insulin specific NOD T cell lines were established by culturing lymphocytes isolated from islet-infiltrating populations by in vitro stimulation with either porcine insulin at 25 μg/ml and irradiated NOD islet cell in the presence of irradiated NOD spleen cells as antigen presenting cells and cytokines. To obtain the infiltrating lymphocytes the following procedures were performed (see Wegmann et al., Eur. J. Immunol. 24:1853, 1994): the pancreas from the NOD mouse was digested with collagenase and individual islets were isolated manually. The infiltrating lymphocytes were then obtained by mild trypsin digestion of the islets. The insulin specific T cell lines or clones were propagated by serial stimulation in the presence of NOD spleen cells, porcine insulin and lymphokines. Clones were obtained by limiting dilution of the B chain (9-23) specific T cell lines in the presence of the antigen presenting cells and porcine insulin at 25 μg/ml. Wells with a growing population of cells following limiting dilution were expanded in appropriate medium, and after one cycle of growth were tested for reactivity to the B chain (9-23) peptide of insulin by evaluating the proliferative response.
(§2) Insulin B chain (9-23) (SEQ ID NO:2) specific mouse (NOD) T cell clones were isolated from infiltrated islets as described in Example 2. Peptide analogues with single alanine substitutions were prepared as described in Example 1. The effect of each analogue on T cell proliferation was then evaluated using an assay performed in 96-well flat bottom microtiter plates (see Daniel et al., Eur. J. Immunol. 25:1056, 1995). Briefly 25,000 T cell clones along with 1 million irradiated NOD spleen cells were cultured in the presence of 50 μg/ml of insulin B chain 9-23 peptide or any of the alanine substituted peptides listed below in triplicate sets. The plates were incubated for a total of 72 hours in 7% carbon dioxide atmosphere with a pulse of 1 μCi/well of tritiated thymidine for the last 6-8 hours of culture. Cells were harvested on a glass fiber filter and the associated radioactivity was counted in a liquid scintillation counter. Results are expressed as mean counts per minute of triplicate wells.
(§3) NOD T cell clones were incubated in the presence of 50 μM of either the native B chain (9-23) peptide or NBI-6024. The data in Table 3 represent the mean of triplicate sample±standard error of the mean. Within Table 3, S.I. (Stimulation Index)=proliferation (cpm) in the presence of the peptide/proliferation (cpm) in medium alone.

[2] = system: Insulin specific NOD T cell clone PD12-2.40; test: Proliferation of insulin-specific NOD T cell clone PD12-2.40; assay type: cell-based, mouse (NOD); conditions: for S.I. (Stimulation Index): clone PD12-2.40, 50 μM peptide, cpm with peptide/cpm in medium alone, Exp. 1 and 2
Experimental: as §1, §2, §3

[3] = system: Insulin B chain (9-23) specific murine T cell clone PD12-2.35; test: Proliferation of insulin B chain (9-23) specific murine T cell clone PD12-2.35; assay type: cell-based, mouse (NOD); conditions: clone PD12-2.35, 50 μM peptide, Exp. 1 and 2; for S.I. (Stimulation Index): cpm with peptide/cpm in medium alone
Experimental: as §1, §2, §3

[4] = system: Insulin B chain (9-23) specific murine T cell clone PD12-4.9; test: Proliferation of insulin B chain (9-23) specific murine T cell clone PD12-4.9; assay type: cell-based, mouse (NOD); conditions: clone PD12-4.9, 50 μM peptide, Exp. 1 and 2; for S.I. (Stimulation Index): cpm with peptide/cpm in medium alone
Experimental: as §1, §2, §3

[5] = system: insulin B chain (9-23) responsive T cell lines from diabetic patients; test: Proliferation of T cell lines from diabetic patients; assay type: cell-based, human; conditions: for Stimulation Index: 50 μM peptide
Experimental: FIGS. 4-6 are histograms illustrating the proliferative response (measured in cpm) of T cell lines from different diabetic patients to the native B chain (9-23) peptide or to representative peptide analogues. Peripheral blood mononuclear cells were isolated from diabetic patients and cultured in the presence of insulin B chain (9-23) peptide. After three rounds of restimulation with insulin B chain (9-23), 1×10^5 T-cells and 7×10^4 irradiated autologous PBMCs were added to each well in a round bottom 96-well plate in complete medium. Cells were cultured for 5 days with NBI-6024 (insulin B chain 9-23 with alanine substitutions at positions 16 and 19), insulin B chain (9-23) or medium only. On day 4, the cells were pulsed with ^3H-thymidine and re-cultured for an additional 18 hours. The cultures were then harvested, counted using liquid scintillation, and the data was expressed as the mean counts per minute (cpm) of replicate samples±standard error of the mean (sem).
FIG. 7 is a histogram illustrating the proliferative response (measured in cpm) of a T cell line from a diabetic patient to the native B chain (9-23) peptide or to representative peptide analogues containing alanine substitutions as indicated. Peripheral blood mononuclear cells were isolated from diabetic patients and cultured in the presence of insulin B chain (9-23) peptide. After three rounds of restimulation with insulin B chain (9-23), 1×10^5 T-cells and 7×10^4 irradiated autologous PBMCs were added to each well in a round bottom 96-well plate in complete medium. Cells were cultured for 5 days with analogue, insulin B chain (9-23) or medium only (BKG), as indicated. On day 4, the cells were pulsed with ^3H-thymidine and re-cultured for an additional 18 hours. The cultures were then harvested, counted using liquid scintillation, and the data was expressed as the mean counts per minute (cpm) of replicate samples±standard error of the mean (sem).
Peptide analogues of B chain (9-23) containing alanine substitutions at residues 13, 15, 16 or 17 or the doubly substituted alanine analog A^16, 19 (NBI-6024) were prepared as described in Example 1. T cell lines from diabetic patients were prepared by isolating lymphocytes from the blood of the patient by subjecting the blood to a density gradient separation. Isolated lymphocytes were then cultured in the presence of the insulin B chain (9-23) peptide (10 μM) and recombinant human IL-2 in the presence of 5-10% of autologous serum and irradiated autologous peripheral blood lymphocytes in culture medium. Four to five days later cells were harvested and the cycle repeated for 2 or 3 times.
Proliferation of the T cell line, in response to the native B chain (9-23) peptide (SEQ ID NO:2) or to the peptide analogs, was measured by culturing 25,000 to 100,000 T cells in the presence of 50,000-200,000 irradiated autologous PBLs and different concentrations of the insulin B chain (9-23) peptide or a peptide analogue in triplicate cultures. Following 4-5 days of culture, including the last 18 hours with radioactive thymidine, cells were harvested and the associated radioactivity was counted in a liquid scintillation counter. Results are expressed as mean counts per minute for each of the peptide analogues tested.

[6] = system: NOD mice (spontaneous diabetes); test: Reduction of incidence of diabetes in NOD mice; assay type: in vivo, NOD mouse
[7] = patient number 1 (ID 100) PBLs, CPM with antigen/CPM with medium alone
[8] = patient number 8 (ID 1100) PBLs
[9] = listed as Insulin B Chain (9-23)

Substance | Proliferative response over medium only (background) [1] | Stimulation Index [5, 7] | Stimulation Index ([5]; patient number 2 (ID 200) PBLs) | Stimulation Index ([5]; patient number 3 (ID 400) PBLs) | Stimulation Index ([5]; patient number 4 (ID 500) PBLs) | Stimulation Index ([5]; patient number 5 (ID 600) PBLs) | Stimulation Index ([5]; patient number 6 (ID 700) PBLs) | Stimulation Index ([5]; patient number 7 (ID 900) PBLs) | Stimulation Index [5, 8] | other results
NBI-6024: insulin B chain 9-23 with alanine substitutions at positions 16 and 19 (SHLVEALALVAGERG) | little or no proliferation over medium only (background) | 0.9 | 1.2 | 1.0 | 0.9 | 1.6 | 1.5 | 0.9 | 0.8 | S.I. (Stimulation Index) [2]: 1.01 and 1.16; Proliferative response, Mean cpm ± sem [3]: 841 ± 88 cpm and 452 ± 179 cpm; S.I. (Stimulation Index) [3]: 1.22 and 0.91; Proliferative response, Mean cpm ± sem [4]: 12,313 ± 1,372 cpm and 6,171 ± 725 cpm; S.I. (Stimulation Index) [4]: 1.35 and 0.85; Stimulation of diabetic patients' T cell lines and clones responsive to native insulin B chain (9-23) ([5]; FIGS. 4-7, Table 5): do not respond; Reduction of the incidence of diabetes compared to the untreated group ([6]; female NOD mice, 20 mg/kg (400 μg/mouse) s.c. weekly for 12 weeks then every other week until Week 35, p<0.004, FIG. 11): 60-70%; Incidence of diabetes compared to neurotensin treated or untreated group ([6]; second experiment, NOD mice, 20 mg/kg s.c., FIG. 12): reduced incidence of diabetes
Native 9-23: native peptide, residues 9-23 of human insulin B chain (SEQ ID NO:2) (SHLVEALYLVCGERG; Residues 9-23 of human insulin B chain; listed as Homo sapiens) [reference compound] | significant response | 9.9 | 5.3 | 7.8 | 2.1 | 5.8 | 3.2 | 2.6 | 3.7 | Response (cpm) of T cell clone PD12-2.40 ([2]; 50 μg/ml peptide, 72 h, 3H-thymidine, no antigen 682 cpm): 32221 cpm; S.I. (Stimulation Index) [2, 9]: 96.16 and 98.4; Proliferative response, Mean cpm ± sem [3, 9]: 120,886 ± 7,171 cpm and 100,521 ± 1,581 cpm; S.I. (Stimulation Index) [3, 9]: 175.7 and 203.89; Proliferative response, Mean cpm ± sem [4, 9]: 45,541 ± 5,222 cpm and 65,624 ± 4,979 cpm; S.I. (Stimulation Index) [4, 9]: 4.99 and 9.1; Incidence of diabetes (percent of mice diabetic) ([6]; NOD mice, 400 μg s.c. weekly, 13 treatments, neurotensin as control, FIG. 10): reduced the incidence of diabetes
